Reference: patent publication EP1551873B1, “AGONISTS AND ANTAGONISTS OF THE HUMAN ODORANT RECEPTOR OR17-4 AND USES THEREOF” (Symrise AG, priority 2002, dated 2004)
“Also recorded” adds a separate entry of the source.

How the values were obtained:
hOR17-4 = experiment: Ca2+ imaging (Fura-2) of HEK293 cells transiently transfected with pOR17-4 (chimeric receptor); format: cell-based, human
Excerpt: Es wird vermutet, dass die Transmembrandomänen III-VI eine Bindungstasche zum Binden von Agonisten bilden (s. S. Firestein, Nature 413, 211-218 (2001)). Um diese Vermutung für den Rezeptor hOR17-4 zu überprüfen wurde ein für die vermuteten Transmembrandomänen III bis VI codierender Abschnitt der für hOR17-4 codierenden cDNA in einem Shuttle-Expressions-Vektor (pOLF-Express) kloniert. Der Expressionsvektor pOLF-Express umfasst die für die N- und C-terminalen Regionen von hOR17-40 codierenden DNA-Abschnitte (C. H. Wetzel et al., Journal of Neuroscience 19, 7426-7433 (1999)). Das resultierende chimäre Rezeptorprotein sollte die Agonistenspezifität des vollständigen Rezeptors hOR17-4 besitzen.
HEK293-Zellen wurden in MEM (Life Technologies, Gaithersburg, MD), das mit 10 % hitze-inaktiviertem fetalem Kälber-Serum angereichert war, in einem Inkubator bei 37 °C in einer Atmosphäre aus 95 % befeuchteter Luft und 5 % CO2 kultiviert. Semikonfluente Zellen wurden in 35 mm Gefäßen (Falcon) mittels Calciumphosphat-Präzipitation (Zufall et al., PNAS 90 (1993), 9335-9339) unter Verwendung jeweils des Plasmids pOR17-4 bzw. pOR17-4v transfiziert. Die Transfektionseffizienz - typischerweise 10 % - wurde histochemisch mit dem Reporterplasmid pCH110 (Pharmacia, Uppsala, Schweden) überprüft, das für β-Galactosidase codiert. Messungen wurden 48 bis 72 Stunden nach der Transfektion durchgeführt. Die Transfektionseffizienz kann mit einem für GFP, einem grün fluoreszierenden Protein, codierenden Reporterplasmid ebenfalls überprüft werden.
Die Rezeptor-Aktivierung in HEK293-Zellen führt zu einem vorübergehenden Anstieg der cytosolischen Ca^2+-Konzentration, die auf der Einzelzell-Ebene unter Verwendung des Ca^2+-sensitiven Farbstoffes Fura-2 (Fura-2 AM, Molecular Probes Europe BV, Leiden, Niederlande; Ladekonzentration 3-4 µg/ml; Ladezeit ca. 30 min) und ratiofluorometrischen Bildgebungstechniken (Imaging-Experimente) detektiert wurden.
(§1) Die Ca^2+-imaging-Experimente wurden auf dem Träger eines invertierten Zeiss-Mikroskopes durchgeführt, das für die ratiofluorometrische Bildgebung mit einer Xenon-Bogenlampe, einem Vielfach-Wellenlängen-Illuminations-System POLYCH-ROM II zur Anregung, einer gekühlten charge-coupled device (CCD)-Kamera und einer WinNT-basierten T.I.L.L.-Vision-Software zum Sammeln und raum- und zeitabhängigen Quantifizieren Ca^2+-abhängiger Fluoreszenz-Signale (F340/F380-Verhältnis) ausgestattet war. HEK293-Zellen wurden mit 32-facher, Spermazellen mit 63-facher Vergrößerung beobachtet.
HEK293- und Spermazellen wurden unter Verwendung eines speziellen Applikations-Systems, das es gestattete, vorübergehend alle Zellen im Blickfeld aus einem von sechs benutzergewählten Kapillarröhrchen zu überspülen, Geruchs- und/oder Wirkstoffen (Testlösungen) ausgesetzt. Der Wechsel zwischen den Testlösungen erfolgte nahezu sofort; auch trat im Wesentlichen keine Wirkungsverzögerung nach dem Wechsel auf, weil die Röhrchenspitzen zum optischen Feld eng benachbart waren. Zwischen den Applikationen von Testlösungen überspülte ein Pufferlösungsstrom kontinuierlich alle Zellen im Gefäß, um jedwede potentielle Hintergrund-Anreicherung von Testlösungen (Geruchs- bzw. Wirkstoffen) zu minimieren. Alle Lösungen wurden bei Raumtemperatur appliziert. Alle verwendeten Geruchsstoffe stammten von Dr. T. Gerke, Henkel KGaA, Düsseldorf, FRG, andere Wirkstoffe wurden von Sigma gekauft. Zur Zusammensetzung der Henkel 100-Mischung vergleiche C. H. Wetzel et al., Journal of Neuroscience 19, 7426-7433 (1999).
Alle auf die potentielle Aktivierung von hOR17-4 untersuchten Geruchsstoffe wurden wenigstens in drei verschiedenen Reihen von Transfektionsexperimenten getestet. […] Geruchsstoffe, die nicht in wenigstens 2 % aller HEK293-Zellen messbare Ca^2+-Konzentrationssteigerung auslösten, wurden nicht zu den hOR17-4-spezifischen Agonisten gezählt, ebenso diejenigen wenigen der untersuchten Komponenten, die ein unspezifisches Ca^2+-Signal in fast jeder Zelle hervorriefen. […]

humane Spermien = experiment: Sperm orientation towards capillary tip (CAVMA, circular statistics, Rayleigh test); format: cell-based, human; conditions: Bourgeonal 10^-8 M and higher
Excerpt: Zur Bestimmung der Chemoattraktion von Spermien und des Effekts eines Antagonisten wurde Bourgeonal allein bei 10^-7 M und in Kombination mit 10^-6, 10^-7, 10^-8 oder 10^-9 M n-Undecanal getestet. Während der Durchführung der Chemotaxis-Bioassays wurde das Spermienverhalten innerhalb eines Bereiches von 300 µm vor jeder Kapillarspitze 30 Sekunden lang auf Video aufgenommen. Die Videoaufnahme begann 10 bis 15 Minuten nach dem Experimentbeginn, um die Bildung eines chemischen Gradienten zu ermöglichen. Die Spermien-Orientierung zum Gradienten hin wurde unter Verwendung von CAVMA quantifiziert. Durch Anwendung zirkulärer Statistiken wurde die mittlere Vektorlänge (r) und die Schwimmrichtung berechnet, um das Bewegungsmuster der untersuchten Spermien zu beschreiben. Der Winkel der Spermienorientierung wurde in Bezug auf einen Ursprung angegeben, der als die kürzeste Verbindung zwischen jeder individuellen Zelle und der Kapillarenspitze (0°) definiert wurde. Um zu bestimmen, ob die Zellbewegung innerhalb des chemischen Gradienten nicht-zufällig war, wurde jede mittlere Ausrichtung mit einer uniformen zirkulären Verteilung unter Verwendung eines unimodalen Rayleigh-Tests (J. H. Zar, Biostatistical Analysis (1984)) verglichen.

[1] = molecular target: T1, hOR17-4 Rezeptor der vollen Länge (Homo sapiens, UniProt P34982); experiment: Ca2+ imaging of HEK293 cells expressing full-length receptor (pOR17-4v); format: cell-based
T1 construct: wurde der Rezeptor hOR17-4 in seiner vollen Länge wie in Beispiel 3 beschrieben kloniert; expressed in transfected cells; host or cells: HEK293, transient, plasmid pOR17-4v (pRC/CMV)
T1 sequence (P34982 1-312): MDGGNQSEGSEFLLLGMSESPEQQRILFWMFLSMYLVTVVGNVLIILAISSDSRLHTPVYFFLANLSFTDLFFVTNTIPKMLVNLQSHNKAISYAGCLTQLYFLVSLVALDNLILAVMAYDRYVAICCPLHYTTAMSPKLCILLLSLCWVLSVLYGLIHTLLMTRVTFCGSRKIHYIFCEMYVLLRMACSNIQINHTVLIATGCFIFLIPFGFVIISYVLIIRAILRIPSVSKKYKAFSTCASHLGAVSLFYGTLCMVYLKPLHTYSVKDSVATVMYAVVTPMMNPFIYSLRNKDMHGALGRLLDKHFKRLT
Excerpt: Um einen Expressionsvektor für das gesamte hOR17-4-Gen ohne geänderte Aminosäuresequenz zu erhalten, wurde das 982 bp lange PCR-Produkt (SEQ ID NO. 3, Herstellung vergleiche Beispiel 2) über stumpfe Enden in den Hindlll/Xbal verdauten Vektor pRC/CMV (Invitrogen, Carlsbad, CA), dessen überhängende Enden mit Klenow-Enzym aufgefüllt worden waren, einkloniert.
HEK293-Zellen wurden in MEM (Life Technologies, Gaithersburg, MD), das mit 10 % hitze-inaktiviertem fetalem Kälber-Serum angereichert war, in einem Inkubator bei 37 °C in einer Atmosphäre aus 95 % befeuchteter Luft und 5 % CO2 kultiviert. Semikonfluente Zellen wurden in 35 mm Gefäßen (Falcon) mittels Calciumphosphat-Präzipitation (Zufall et al., PNAS 90 (1993), 9335-9339) unter Verwendung jeweils des Plasmids pOR17-4 bzw. pOR17-4v transfiziert. […]
as §1, with “HEK293-Zellen wurden mit 32-facher, Spermazellen mit 63-facher Vergrößerung beobachtet.” left out

**Q.** With `CC(C)(C)c1ccc(CCC=O)cc1` [Bourgeonal] as the compound, how does the “Induktion einer Ca^2+-Konzentrationssteigerung” value (hOR17-4; agonist concentration reduced to 10^-6 M) read?
**A.** The value was “deutlich”.

**Q.** And the “Wirksamkeit (Rangordnung der Agonisten)” value (hOR17-4; ranking by amplitude normalised to ATP and by responding cells relative to Cyclamal ca. 5 mM)?
**A.** Its value is “wirksamere Agonisten; also recorded: der wirksamste getestete Agonist”.

**Q.** What about the “Rezeptoraktivierung (Ca^2+-Antwort)” value (hOR17-4; single odorant about 500 µM, pOR17-4-transfected HEK293 cells) of the same compound?
**A.** The value was “Fähigkeit der Substanzen, den Rezeptor zu aktivieren”.

**Q.** And the “Zellbewegungsmuster in der Nähe der Kapillarspitzen” value (humane Spermien)?
**A.** Its value is “signifikant nicht-zufällig”.

**Q.** And the “mittlere Vektorlänge (r), Rayleigh-Test” value (humane Spermien; all comparisons)?
**A.** Its value is ≥ 0,45.

**Q.** What about the “Aktivierung des vollständigen Rezeptors hOR17-4” value [1] of the same compound?
**A.** The value was “aktivierte deutlich”.

**Q.** For `CCCCCCCCCCC=O` [n-Undecanal], which “Zellen, die auf Bourgeonal antworteten, mit vollständig inhibierter Rezeptoraktivierung” value (hOR17-4; pre-incubation 30 s or longer before Bourgeonal) is on record?
**A.** The value was 26 von 28.

**Q.** And the “Einfluss auf die hOR17-4-Rezeptoraktivierung durch Bourgeonal” value (hOR17-4; single components of Mix D, pre-incubation)?
**A.** Its value is “vollständig inhibiert”.

**Q.** And the “Inhibition der Bourgeonal-Antwort” value ([1]; 30 to 60 s pre-incubation of the cells)?
**A.** The value was “inhibiert”.
